{
  "source": "patent US12268683B2",
  "about": "“Compounds and methods for synergistic activation of M channels” (THE REGENTS OF THE UNIVERSITY OF CALIFORNIA, priority 2018, dated 2025)",
  "key": {"KCNQ1/KCNE3": {"target": "KCNQ1/KCNE3 (Homo sapiens, UniProt P51787)", "assay": "TEVC of KCNQ1/KCNE3 channels", "format": "cell-based", "source_text": "(§1) As previously described (12), we generated cRNA transcripts encoding human KCNA1, KCNE1, KCNE2, KCNE3, KCNQ1, KCNQ2, KCNQ3, KCNQ4 or KCNQ5 by in vitro transcription using the T7 polymerase mMessage mMachine kit (Thermo Fisher Scientific), after vector linearization, from cDNA sub-cloned into plasmids incorporating Xenopus laevis β-globin 5′ and 3′ UTRs flanking the coding region to enhance translation and cRNA stability. We quantified cRNA by spectrophotometry. We generated mutant KCNQ2 and KCNQ3 cDNAs by site-directed mutagenesis with a QuikChange kit (Stratagene, San Diego, Calif.) and prepared the cRNAs as above. We injected defolliculated stage V and VI Xenopus laevis oocytes (Ecocyte Bioscience, Austin, Tex. and Xenoocyte, Dexter, Mich., US) with KCNE and/or KCNQ cRNAs (5-20 ng). […]\n(§2) We performed TEVC at room temperature using an OC-725C amplifier (Warner Instruments, Hamden, Conn.) and pClamp10 software (Molecular Devices, Sunnyvale, Calif.) 2-5 days after cRNA injection as described in the section above. […] We recorded currents in response to voltage pulses between −120 or −80 mV and +40 mV at 20 mV intervals from a holding potential of −80 mV, to yield current-voltage relationships, current magnitude, and for quantifying activation rate. We analyzed data using Clampfit (Molecular Devices) and Graphpad Prism software (GraphPad, San Diego, Calif., USA); values are stated as mean±SEM. […]"}, "KCNQ1/KCNE2": {"target": "KCNQ1/KCNE2 (Homo sapiens, UniProt P51787)", "assay": "TEVC of KCNQ1/KCNE2 channels", "format": "cell-based", "source_text": "as §1, §2"}, "KCNQ1-R243A": {"target": "KCNQ1-R243A (Homo sapiens, UniProt P51787, R243A)", "assay": "TEVC of R243A KCNQ1 channels", "format": "cell-based", "source_text": "as §1, §2"}, "[1]": {"conditions": "rats fed Mallotus philippensis extract; cited from earlier work"}},
  "data": [
    {"smiles": "CCCCCCCCC/C=C/C=O", "note": "[(E)-2-dodecenal]", "values": [
      {"measurement": "effect on KCNQ1/KCNE3 (in words)", "setting": "KCNQ1/KCNE3", "value": "activated"},
      {"measurement": "effect on KCNQ1/KCNE2 (in words)", "setting": "KCNQ1/KCNE2", "value": "minimal effects"},
      {"measurement": "effect of R243A mutation on (E)-2-dodecenal action in KCNQ1", "setting": "KCNQ1-R243A", "value": "slightly increased (E)-2-dodecenal efficacy"}
    ]},
    {"smiles": "CC(=O)c1c(O)c(C)c(O)c(Cc2c(O)c3c(c(C(=O)/C=C/c4ccccc4)c2O)OC(C)(C)C=C3)c1O", "note": "[MTX, mallotoxin]", "values": [
      {"measurement": "oral bioavailability", "setting": "[1]", "value": "> 20", "unit": "%"},
      {"measurement": "plasma concentration", "setting": "[1]", "value": "exceeded 2 μg/ml"}
    ]}
  ]
}
